{"source": "patent US9840494B2", "about": "“Quinazoline derivative” (Tianjin Hemay Oncology Pharmaceutical Co., Ltd., priority 2013, dated 2017)", "assay": "Bioavailability assay in rats, Experiment I (dihydrochloride)", "assay_type": "in vivo", "details": "Wistar rats; for half-life: read-out: T½ elimination half-life (converted)", "experimental": "Experiment I. Bioavailability Assay for N-[4-(3-chloro-4-fluorophenylamino)-7-(2-methoxyethoxy)quinazolin-6-yl]-2-[1-(2-methoxyethyl)piperidin-4-ylidene]acetamide Dihydrochloride in Rats\n12 Wistar rats (male, weighing 200-220 g) were purchased from Beijing Vital River Laboratory Animal Technology Co., Ltd. License No.: SCXK (Beijing) 2007-0001.\n2.1 30 mg of N-[4-(3-chloro-4-fluorophenylamino)-7-(2-methoxyethoxy)quinazolin-6-yl]-2-[1-(2-methoxyethyl)piperidin-4-ylidene]acetamide dihydrochloride was weighted, and 6 ml of ultrapure water was added thereto to prepare a sample solution (5 mg/ml)) for use in intravenous administration.\n2.2 30 mg of N-[4-(3-chloro-4-fluorophenylamino)-7-(2-methoxyethoxy)quinazolin-6yl]-2-[1-(2-methoxyethyl)piperidin-4-ylidene]acetamide dihydrochloride was weighted, and 12 ml of ultrapure water was added thereto to prepare a sample solution (2.5 mg/ml)) for use in intragastric administration.\n4.1.1 HPLC Conditions: chromatographic column: octadecyl-bonded silica gel as filler (4.6 mm×50 mm, 1.8 μm), Agilent; mobile phase: methanol: 5 mM ammonium acetate (PH4.0) (60: 40); flow rate: 1 ml/min; column temperature: 40° C.\nIon: 544.3→457.1 (N-[4-(3-chloro-4-fluorophenylamino)-7-(2-methoxyethoxy)quinazolin-6-yl]-2-[1-(2-methoxyethyl)piperidin-4-ylidene]acetamide dihydrochloride)\nDwell Time: 80; fragment voltage: 180; collision energy: 25;\n1 mg of N-[4-(3-chloro-4-fluorophenylamino)-7-(2-methoxyethoxy)quinazolin-6-yl]-2-[1-(2-methoxyethyl)piperidin-4-ylidene]acetamide dihydrochloride was weighted and formulated into a solution in methanol (1 mg/ml)). The solution was then diluted stepwise into standard solutions of 50 ng/ml, 100 ng/ml, 200 ng/ml, 500 ng/ml, 1 μg/ml, 2 μg/ml, 5 μg/ml, 10 μg/ml, 20 μg/ml, 50 μg/ml, and 100 μg/ml. 10 μl of the standard solutions were separately pipetted into centrifuge tubes (1.5 ml). 10 μl of internal standard (1 μg/ml Lipitor solution in methanol) was added thereto. 100 μl of rat plasma was then added thereto. The mixture was vortexed. Then 200 μl of acetonitrile was added to precipitate protein, then vortexed for 1 min and centrifuged at 16000 r/min for 8 min 10 μl of the supernatant was directly injected for measurement.\n12 rats were randomly divided into two groups, i.e. six rats per group. These rats were fasted and ad libitum accessed to water for 12 hours before administration. Blank blood (about 0.5 ml) of each rat was withdrawn, and then N-[4-(3-chloro-4-fluorophenylamino)-7-(2-methoxyethoxy)quinazolin-6-yl]-2-[1-(2-methoxyethyl)piperidin-4-ylidene]acetamide dihydrochloride (20 mg/kg) was administrated via intragastric gavage and tail intravenous injection, respectively. Blood (about 0.5 ml) was withdrawn from the orbital venous plexus at different time points after the administration (blood collection points for tail intravenous administration were: 5 min, 15 min, 0.5 h, 1 h, 2 h, 3 h, 4 h, 6 h, 8 h, 12 h, 18 h, 24 h, 30 h; and blood collection time-points for intragastric administration were: 5 min, 10 min, 20 min, 30 min, 45 min, 1 h, 2 h, 3 h, 4 h, 6 h, 8 h, 12 h, 18 h, 24 h, 30 h). The blood was drawn into a heparinized centrifuge tube and centrifuged at 8000 r/min for 10 min 100 μl of the plasma was pipetted into a centrifuge tube (1.5 ml), and 10 μl of internal standard (1 μg/ml atorvastatin hemi-calcium salt solution in methanol) was added thereto. The resulting mixture was vortexed. Then 200 μl of acetonitrile was added to precipitate protein, vortexed for 1 min and centrifuged at 16000 r/min for 8 min The supernatant was recovered, and 10 μl of the supernatant was directly injected for detection.\n5.1 A standard curve with the natural logarithm of the sample concentration as abscissa and the natural logarithm of the peak area ratio of the sample to the internal standard as ordinate was established as: y=1.008x−4.149; R2=0.998\nMethod for the calculation of bioavailability: F=(AUCig×Div)/(AUCiv×Dig)×100% […]", "key": {"[1]": {"details": "male, rat, plasma, oral, 20 mg/kg ig, read-out: Average Plasma Drug Concentration"}, "[2]": {"details": "male, rat, plasma, po, 20 mg/kg ig"}, "[3]": {"details": "male, rat, plasma, 20 mg/kg iv, read-out: Average Plasma Drug Concentration"}}, "note": "Read-outs that look alike come from different tables or passages of the source.", "data": [{"compound": "COCCOc1cc2ncnc(Nc3ccc(F)c(Cl)c3)c2cc1NC(=O)C=C1CCN(CCOC)CC1.Cl.Cl", "note": "[Compound 2, N-[4-(3-chloro-4-fluorophenylamino)-7-(2-methoxyethoxy)quinazolin-6yl]-2-[1-(2-methoxyethyl)piperidin-4-ylidene]acetamide dihydrochloride]", "values": [{"measurement": "K (elimination rate constant)", "setting": "20 mg/kg iv", "result": 0.14}, {"measurement": "bioavailability", "setting": "male, rat, plasma, oral, 20 mg/kg ig vs 20 mg/kg iv", "result": 56.9, "unit": "%"}, {"measurement": "concentration at 0.167 h", "setting": "male, rat, plasma, oral, 20 mg/kg ig, 0.167 h, read-out: Average Plasma Drug Concentration", "result": 39.4, "unit": "ng/mL"}, {"measurement": "concentration at 0.33 h", "setting": "male, rat, plasma, oral, 20 mg/kg ig, 0.33 h, read-out: Average Plasma Drug Concentration", "result": 145, "unit": "ng/mL"}, {"measurement": "concentration at 0.5 h", "setting": "[1]", "result": 202, "unit": "ng/mL"}, {"measurement": "concentration at 0.75 h", "setting": "male, rat, plasma, oral, 20 mg/kg ig, 0.75 h, read-out: Average Plasma Drug Concentration", "result": 285, "unit": "ng/mL"}, {"measurement": "concentration at 1 h", "setting": "[1]", "result": 342, "unit": "ng/mL"}, {"measurement": "concentration at 2 h", "setting": "[1]", "result": 342, "unit": "ng/mL"}, {"measurement": "concentration at 3 h", "setting": "[1]", "result": 406, "unit": "ng/mL"}, {"measurement": "concentration at 4 h", "setting": "[1]", "result": 468, "unit": "ng/mL"}, {"measurement": "concentration at 6 h", "setting": "[1]", "result": 536, "unit": "ng/mL"}, {"measurement": "concentration at 8 h", "setting": "[1]", "result": 495, "unit": "ng/mL"}, {"measurement": "concentration at 12 h", "setting": "[1]", "result": 330, "unit": "ng/mL"}, {"measurement": "concentration at 18 h", "setting": "[1]", "result": 139, "unit": "ng/mL"}, {"measurement": "concentration at 24 h", "setting": "[1]", "result": 72.4, "unit": "ng/mL"}, {"measurement": "concentration at 30 h", "setting": "[1]", "result": 22.7, "unit": "ng/mL"}, {"measurement": "concentration at 0.083 h", "setting": "male, rat, plasma, oral, 20 mg/kg intragastric gavage (ig), read-out: Average Plasma Drug Concentration", "result": 17.1, "unit": "ng/mL"}, {"measurement": "AUC", "setting": "[2]", "result": 7350, "unit": "ng·h/mL"}, {"measurement": "half-life", "setting": "[2]", "result": 4.73, "unit": "h"}, {"measurement": "AUC", "setting": "male, rat, plasma, 20 mg/kg iv", "result": 12900, "unit": "ng·h/mL"}, {"measurement": "concentration at 0.25 h", "setting": "male, rat, plasma, 20 mg/kg iv, 0.25 h, read-out: Average Plasma Drug Concentration", "result": 3240, "unit": "ng/mL"}, {"measurement": "concentration at 0.5 h", "setting": "[3]", "result": 2700, "unit": "ng/mL"}, {"measurement": "concentration at 1 h", "setting": "[3]", "result": 1720, "unit": "ng/mL"}, {"measurement": "concentration at 2 h", "setting": "[3]", "result": 1330, "unit": "ng/mL"}, {"measurement": "concentration at 3 h", "setting": "[3]", "result": 989, "unit": "ng/mL"}, {"measurement": "concentration at 4 h", "setting": "[3]", "result": 748, "unit": "ng/mL"}, {"measurement": "concentration at 6 h", "setting": "[3]", "result": 557, "unit": "ng/mL"}, {"measurement": "concentration at 8 h", "setting": "[3]", "result": 547, "unit": "ng/mL"}, {"measurement": "concentration at 12 h", "setting": "[3]", "result": 325, "unit": "ng/mL"}, {"measurement": "concentration at 18 h", "setting": "[3]", "result": 181, "unit": "ng/mL"}, {"measurement": "concentration at 24 h", "setting": "[3]", "result": 80.8, "unit": "ng/mL"}, {"measurement": "concentration at 30 h", "setting": "[3]", "result": 29.6, "unit": "ng/mL"}, {"measurement": "half-life", "setting": "male, rat, plasma, 20 mg/kg iv", "result": 5.18, "unit": "h"}, {"measurement": "concentration at 0.083 h", "setting": "male, rat, plasma, 20 mg/kg tail intravenous injection (iv), read-out: Average Plasma Drug Concentration", "result": 4850, "unit": "ng/mL"}]}]}
